What was measured:
Assay type in all cases: in vivo, Male Wistar rats
[1] = tested on: TBI-induced rats; test: Rotarod test after weight-drop TBI; conditions: TBI group vs control, JM-20 and TBI+JM-20 groups, p<0.05; FIG. 1
Experimental: (§1) Male Wistar rats (200-250 g), with an average age of 60 days were used, conditioned in boxes with food and water at will. Procedures were performed pursuant to the rules of the Animal Ethics and Welfare Committee UFSM (9426190418).
(§2) TBI was induced through the weight-drop model (MANNIX, R. et al. Chronic Gliosis and Behavioral Deficits in Mice Following Repetitive Mild Traumatic Brain Injury. Journal of Neurosurgery. 2014) A 54 g weight was used released from a 100 cm height freely falling on the animals head. Animals were suspended on aluminum foil, with small cuts to ensure it would break with the impact of the weight allowing for the sudden acceleration of the movement, thus tearing the aluminum foil and falling over a sponge. TBI-induced animals were previously anesthetized with 2% isoflurane. In addition, topical lidocaine was applied to the animals' head to minimize posttraumatic pain (MYCHASIUK, R. et al. A Novel Model of Mild Traumatic Brain Injury for Juvenile Rats. Journal of Visualized Experiments. 2014)
Animals were trained for 5 minutes before the TBI so they could adapt to the apparatus. The testing session comprised 5 trials and concluded when animals fell off the rotor (3.7 cm diameter, velocity 25-30 rpm) or after the cutoff time, i.e. 300 s. (Whishaw et al., 2003). The first fall latency was analyzed.

[2] = tested on: TBI-induced rats; test: Open field test after weight-drop TBI; conditions: TBI group vs control and TBI+JM-20 group, p<0.05; FIG. 3
Experimental: as §1, §2
Animals were placed in the central area of an open field (56 cm diameter) that had its surface divided into equal parts. The duration of the test was 300 seconds. The number of times animals walked around the quadrants, the number of their exploratory responses (rearings) and their immobility time were analyzed.

[3] = tested on: TBI-induced rats; test: Beam-walking test after weight-drop TBI; conditions: TBI group vs control and JM-20 (alone) groups, p<0.05; FIG. 5
Experimental: as §1
as §2, with “In addition, topical lidocaine was applied to the animals' head to minimize posttraumatic pain (MYCHASIUK, R. et al. A Novel Model of Mild Traumatic Brain Injury for Juvenile Rats. Journal of Visualized Experiments. 2014)” left out
The beam-walking test (HAUSSER, N. et al. Detecting Behavioral Deficits in Rats After Traumatic Brain Injury. J. Vis. Exp. (131), e56044, doi:10.3791/56044. 2018.) consists in animals walking on a hanging wooden beam (2.5 cm wide and 100 cm long) to reach a black wooden box placed at the end of the apparatus. […] Three attempts were analyzed. […] The day of the test, the times of each attempt were recorded and their values were averaged.

[4] = tested on: TBI-induced rats; test: Cerebral edema (brain water content, wet-dry method); conditions: 24 h after TBI; TBI group vs control and TBI+JM-20 groups, p<0.05; FIG. 6
Experimental: as §1
as §2, with “In addition, topical lidocaine was applied to the animals' head to minimize posttraumatic pain (MYCHASIUK, R. et al. A Novel Model of Mild Traumatic Brain Injury for Juvenile Rats. Journal of Visualized Experiments. 2014)” left out
The cerebral edema was determined measuring the water content of the brain using the wet-dry method described by Chen et al (2014) (CHEN, W. et al. Neuroprotective effect of allicin against traumatic brain injury via Akt/endothelial nitric oxide synthase pathway-mediated anti-inflammatory and anti-oxidative activities. Neurochemistry International. 68:28-37. 2014) Twenty-four hours after the TBI, the animals were sacrificed and their brains were rapidly removed and weighed to determine their wet weight. […] The water content of the brain was calculated using the following formula: […]

[5] = tested on: p-Akt; test: Western blotting of p-Akt in brain tissue; conditions: TBI group vs control and TBI+JM-20 groups, p<0.05, FIG. 8
Experimental: as §1
(§3) TBI was induced through the weight-drop model (MANNIX, R. et al. Chronic Gliosis and Behavioral Deficits in Mice Following Repetitive Mild Traumatic Brain Injury. Journal of Neurosurgery. 2014) A 54 g weight was used released from a 100 cm height freely falling on the animals head. […]
(§4) The Western blot test was performed according to Gerbatin et al (2017) with some adjustments (GERBATIN, R. D. R. et al. Guanosine Protects Against Traumatic Brain Injury-Induced Functional Impairments and Neuronal Loss by Modulating Excitotoxicity, Mitochondrial Dysfunction, and Inflammation. Molecular Neurobiology. 54(10):7585-7596. 2017.). […] The protein concentration of each sample was determined by the bicinchonininc acid protein assay (Thermo Fisher Scientific). […]
(§5) The mouse anti-β-actin antibody (1: 10,000, Santa Cruz Biotechnology, Santa Cruz, Calif., EE. UU.) was dyed as an additional control to the protein load. […] Then the bands were quantified using the Image Lab software (Bio-Rad).

[6] = tested on: iba-1; test: Western blotting of iba-1 in brain tissue; conditions: TBI group vs control, JM-20 and TBI+JM-20, p<0.01, FIG. 9
Experimental: as §1, §3, §4, §5

[7] = tested on: GFAP; test: Western blotting of GFAP in brain tissue; conditions: cortex and hippocampus; all groups; FIGS. 11 and 12
Experimental: as §1, §3, §4, §5

[8] = tested on: TBI; test: Overall assessment in animal models after a TBI; conditions: motor performance; cerebral edema; astrocyte reactivity; microglial activation; pro-survival pathway activation
Experimental: as §1, §2

## CCOC(=O)C1=C(C)NC2=C(C=Nc3ccccc3N2)C1c1ccccc1[N+](=O)[O-] (centres unmarked) [JM-20, 3-ethoxycarbonyl-2-methyl-4-(2-nitrophenyl)-4,11-dihydro-1H-pyridol[2,3-b][1,5]benzodiazepine]
[1]
  first fall latency time on the rotarod test: animals who suffered a TBI showed a reduction of the first fall latency time on the rotarod test in contrast with the other groups
[2]
  number of rearings during the open field test: a higher number of rearings was observed in comparison with the control and the TBI+JM-20 group
[3]
  time to complete the beam-walk test: rats in the TBI group took longer to complete the course than the control and JM-20 groups
[4]
  brain water content: increased in the TBI group in contrast with the control and TBI +JM-20 groups
[5]
  p-Akt expression in hippocampus: decreased in TBI groups
[6]
  iba-1 expression in cerebral cortex: increased in TBI groups, both in the cerebral cortex in comparison with all the groups
[7]
  GFAP expression: showed no changes in any of the groups
[8]
  effect on TBI adverse effects (behavioral, morphological and biochemical changes): effective in reducing and, in some cases, reversing TBI adverse effects

— patent publication US20220370473A1, “USE OF A BENZODIAZEPINE DERIVATIVE AND METHOD OF TREATMENT OF TRAUMATIC BRAIN INJURY” (CENTRO DE INVESTIGACION Y […] MEDICAMENTOS (CIDEM), priority 2019, published 2022)
